Results as given in PubChem BioAssay (NCI).
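Growth conditions: 96-well plates. Treatment: test compound, 48 hours, 5 concentrations. Analysis: linear interpolation between bracketing concentrations; unreached endpoints set to highest concentration. GI50 is the concentration that inhibits growth by half. The concentration for full growth arrest is given as TGI.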

What was measured:
Assay in all cases: DTP human tumour cell line panel, 48 h
SK-MEL-5 melanoma = tested on: SK-MEL-5 melanoma
MDA-MB-231 breast = tested on: MDA-MB-231 breast
UACC-257 melanoma = tested on: UACC-257 melanoma
SNB-19 CNS = tested on: SNB-19 CNS
HCT-116 colon = tested on: HCT-116 colon
SNB-75 CNS = tested on: SNB-75 CNS
MDA-MB-435 = tested on: MDA-MB-435
ACHN renal = tested on: ACHN renal
HCC-2998 colon = tested on: HCC-2998 colon
CCRF-CEM leukemia = tested on: CCRF-CEM leukemia

| Structure (SMILES) | GI50 (SK-MEL-5 melanoma) [µM] | TGI (SK-MEL-5 melanoma) [µM] | GI50 (MDA-MB-231 breast) [µM] | TGI (MDA-MB-231 breast) [µM] | GI50 (UACC-257 melanoma) [µM] | TGI (UACC-257 melanoma) [µM] | GI50 (SNB-19 CNS) [µM] | TGI (SNB-19 CNS) [µM] | GI50 (HCT-116 colon) [µM] | TGI (HCT-116 colon) [µM] | GI50 (SNB-75 CNS) [µM] | TGI (SNB-75 CNS) [µM] | GI50 (MDA-MB-435) [µM] | TGI (MDA-MB-435) [µM] | GI50 (ACHN renal) [µM] | TGI (ACHN renal) [µM] | GI50 (HCC-2998 colon) [µM] | TGI (HCC-2998 colon) [µM] | GI50 (CCRF-CEM leukemia) [µM] | TGI (CCRF-CEM leukemia) [µM] |
| --- | --- | --- | --- | --- | --- | --- | --- | --- | --- | --- | --- | --- | --- | --- | --- | --- | --- | --- | --- | --- |
| CN(C)CC1CCCCCC(CN(C)C)C1=O (centres undefined) | 12.2 | 25.1 | 8.68 | 23.8 | 1.77 | 4.6 | 41.7 | > 100 | 1.07 | 3.91 | 12.2 | 27.5 | 2.93 | 13.2 | 1.07 | 2.64 | 17.1 | 33.3 | 1.38 | 3.87 |
| C=C1CCC2C3(C)COC(c4ccccc4Br)OC3CCC2(C)C1C/C=C1/C(=O)OCC1OC(C)=O (centres undefined) | 1.6 | 2.98 | 1.47 | 3.16 | 1.57 | 2.99 | 2.25 | 5.85 | 0.289 | 0.751 | 1.17 | 2.46 | 1.48 | 3.5 | 1.6 | 2.96 | 1.73 | 3.31 | 0.381 | 3.96 |
| O=C(OCCBr)c1ccc(Cl)c([N+](=O)[O-])c1 | 14.9 | 28.5 | 8.3 | 21.6 | 9.02 | 22.9 | 1.87 | 3.74 | 14.3 | 30.4 | 5.63 | 12.2 | 15.5 | 30.9 | 18.8 | 34.4 | 1.91 | 3.67 | 15.6 | 38.7 |
| COc1cc(C2C3=C(COC3=O)Nc3cc4c(cc32)CCC4)cc2c1OCO2 (centres undefined) | 0.0382 | 0.264 | 0.0577 | 5.11 | 1.13 | 63.3 | 0.0724 | 23.3 | 0.0428 | 1.31 | 0.0259 | 18.8 | 0.0237 | 0.0604 | 0.114 | 21.4 | 0.26 | 4.88 | 0.0452 | 14.6 |
| COc1cc(C(=O)/C=C/c2cccnc2Nc2ccccc2)cc(OC)c1OC | 1.34 | 2.64 | 1.4 | 3.09 | 1.51 | 2.86 | 1.48 | 2.86 | 0.337 | 1.31 | 1.13 | 2.34 | 0.637 | 2.08 | 1.28 | 2.57 | 1.18 | 2.46 | 0.321 | 1.19 |
| Nc1ccc(-c2ccc(N)cc2I)c(I)c1 | 13.9 | 27.2 | 16.6 | 46.4 | 21.5 | 53.8 | 19 | 77.3 | 15.2 | 32 | 10.8 | 73.8 | 3.72 | 16.2 | 22.6 | 89.6 | 19.1 | 42.2 | 8.14 | 43.3 |
| Cc1ccc2c(c1)C(=O)c1c-2n(CCCBr)c(=O)c2cc([N+](=O)[O-])ccc12 | 33 | > 100 | 58.8 | > 100 | > 100 | > 100 | 47.9 | > 100 | 18.7 | > 100 | 48.1 | > 100 | > 100 | > 100 | 23.3 | > 100 | 11.7 | 77.6 | 5.29 | 46.4 |
| COc1cc(C2CC(c3ccc(N(C)C)cc3)=NN2C(C)=O)cc(OC)c1OC (centres undefined) | 0.804 | 17.6 | 4.74 | > 100 | > 69.5 | > 100 |  | > 100 | 1.22 | > 45.4 | 1.43 | > 100 | 0.231 | 1.18 | 3.57 | > 100 | 2.61 | 27.1 | 8.17 | > 100 |
| Cn1ccnc1C(=O)/C=C/c1ccc(CC(=O)Nc2ccc(C(F)(F)F)cc2)cc1 | 3.83 | 11.2 | 4.02 | 15.2 | 8.03 | > 16.7 | 2.46 | 5.09 | 2.4 | 4.94 | 2.5 | 8.01 | 3.88 | 12.5 | 2.95 | 5.96 | 2.87 | 5.44 | 0.658 | > 16.7 |
| c1ccc(CSc2nnc3c4ccccc4c4ccccc4c3n2)cc1 |  | > 100 |  | > 100 |  | > 100 |  | > 78.1 |  | > 100 |  | 21.6 |  | > 100 |  | > 100 |  | > 100 |  | 72.5 |
| COC(=O)C(F)C(Br)C(=O)OC (centres undefined) |  | 34 |  | 28.3 |  | 28.4 |  | > 79.3 |  | 6.09 |  | 31 |  | 27.3 |  | 3.39 |  | 21 |  | 2.29 |
| COCCNc1cc(NC(=O)N2CCCc3cc(CN4CCN(C)CC4=O)c(C=O)nc32)ncc1C#N | > 50 | > 50 | 44.8 | > 50 | > 50 | > 50 | > 50 | > 50 | 25.6 | > 50 | 16 | > 50 | > 50 | > 50 | 23 | > 50 | > 50 | > 50 | > 50 | > 50 |
| CC(C)N1C(NNC(=O)c2cnccn2)=NS(=O)(=O)c2ccccc21 | > 100 | > 100 | > 100 | > 100 | > 100 | > 100 | > 100 | > 100 | > 100 | > 100 | 94.5 | > 100 | > 100 | > 100 | > 100 | > 100 | > 100 | > 100 | 1.33 | 6.3 |
| C/C=C/[C@@H]1OC(=O)C2=C[C@@H](O)[C@@H](/C=C/C)O[C@H]21 | 9.03 | 23.8 | 12.9 | 29.3 | 17.7 | 33 | 16.6 | 33.8 | 1.3 | 3.94 | 14.6 | 32.4 | 10.4 | 25.5 | 2.34 | 8.01 | 28.3 | 55 | 0.271 | 5.77 |
| OCC1OC(n2cnc3c(=S)nc[nH]c32)C(O)C1O (centres undefined) | 9.5 | > 2500 | 14.1 | > 2500 | > 100 | > 2500 | > 65.2 | > 1960 | 2.78 | > 2500 | 34.1 | > 2500 | 3.89 | > 2500 | 4.87 | > 2500 | 2.46 | > 2500 | 3.35 | > 2500 |
| Cn1cc(-c2ccc(-c3cn(C)c4ccc(Cl)cc34)s2)c2cc(Cl)ccc21 | > 100 | > 100 | > 100 | > 100 | > 100 | > 100 | > 100 | > 100 | > 100 | > 100 | > 100 | > 100 | > 100 | > 100 | > 100 | > 100 | > 100 | > 100 | > 100 | > 100 |
| CCCCNC(=O)NS(=O)(=O)c1ccc(N2N=C(c3cc(C)ccc3C)CC2c2cc(OC)c(OC)c(OC)c2)cc1 (centres undefined) | 2.54 | 7.01 | 2.36 | 6.39 | 3.39 | 12.9 | 2.75 | 12.7 |  |  | 2.12 | 5.83 | 1.75 | 4.24 | 3.69 | 12.5 | 2.32 | 4.84 | 2.2 | 6.12 |
| O=C(c1cccnc1)c1cc(-c2ccccn2)c(=O)n2ccccc12 | > 100 | > 100 | > 100 | > 100 | > 100 | > 100 | > 100 | > 100 | > 100 | > 100 | > 100 | > 100 | > 100 | > 100 | > 100 | > 100 | > 100 | > 100 | > 100 | > 100 |
| CCC(/C=C/c1ccccc1)=N\Nc1ccc(Cl)c(Cl)c1 |  | 30 |  | 55.7 |  | > 100 |  | > 100 |  | > 100 |  | > 100 |  | > 100 |  | 76.9 |  | 65 |  | > 100 |
| FC(F)(F)c1ccc(-c2cnc(Cl)nc2NCc2cc(C(F)(F)F)cc(C(F)(F)F)c2)cc1 | 5.19 | > 100 | 2.19 | 6.4 | 2.18 | 7.28 | 2.44 | > 100 | 3.32 | > 100 | 1.7 | > 100 | 2.96 | > 100 | 3.28 | > 100 | 3.82 | > 100 | 3.82 | > 100 |
| CCN(CC)c1ccc(C(=N)c2ccc(N(C)C)cc2)cc1 | 0.159 | 1.94 | 1.33 | 3.87 | 1.36 | 5.11 | 2.19 | 10.1 | 0.155 | 3.39 | 2.26 | > 21.7 | 0.0962 | 1.05 | 2.34 | 12 | 1.85 | 5.69 | 1.96 | 97.8 |
| CCCOc1nc(SCCC)nc2c1cnn2-c1ccccc1 | > 100 | > 100 | > 100 | > 100 | > 100 | > 100 | > 100 | > 100 | 55.3 | > 100 | > 100 | > 100 | 53.1 | > 100 | > 100 | > 100 | > 100 | > 100 | 56.7 | > 100 |
| CC(=O)O[C@H]1CC[C@@]2(C)[C@@H](CC[C@@H]3[C@@H]2CC[C@]2(C)C=C(C=O)C[C@@H]32)C1 | 3.56 | 14.4 | 10.6 | 27.5 | 12.2 | 26.3 | 14.5 | 30.8 | 1.66 | 3.42 | 9.36 | 22.2 | 5.01 | 19.2 | 20.2 | 60.8 |  |  | 2.48 | 6.75 |
| Clc1nc(Cl)c(-c2ccccc2)c(Cl)n1 |  | 9.36 |  | 10.7 |  | 7.65 |  | 28.5 |  | 3.6 |  | > 54.8 |  | 9.55 |  |  |  | 5.32 |  | 8.28 |
| CCCCCCCOc1c(OC)cc(C2CC(=O)Nc3c2c(C)nn3-c2nc3ccccc3[nH]2)cc1OC (centres undefined) | 1.93 | 3.78 | 1.98 | 4.12 | 4.03 | > 100 | 3.93 | > 100 | 3.49 | > 100 |  |  | 2.42 | 6.08 | 3.21 | > 100 | 74.1 | > 100 | 4.15 | > 100 |
| CCOC(=O)c1nc(Nc2ccc(Cl)cc2)c2ccccc2n1 | 7.19 | 13.8 | 14.1 | 42 | 13 | 30.6 | 13.5 | 43.2 | 25.1 | > 50 | 11.9 | 29.5 | 6.85 | 13.3 | 9.3 | 19.2 | 8.46 | 15.6 |  |  |
| CC12CC(OC(=O)[C@]1(C)O)[C@@H]([C@]1(O)CC[C@H]3[C@@H]4C[C@H]5O[C@]56[C@@H](O)C=CC(=O)[C@]6(C)[C@H]4CC[C@@]31C)C2 (some centres undefined) |  | 17.8 |  | 16.7 |  | 28.4 |  | > 100 |  | 13.2 |  |  |  | 29.4 |  | 22.9 |  | 36.4 |  | 7.16 |
